Results taken from ChEMBL document CHEMBL5390264, “Exploring Fatty Acid Mimetics as NR4A Ligands” (J Med Chem, 2023).
The source made the active and inactive calls. The calls are words filed in the database; no cut-off is given here.

What was measured:
Type in all cases: cell-based
[1] = target: Nuclear receptor subfamily 4 group A member 3 (Homo sapiens, UniProt Q92570); assay: Agonist activity at human NOR-1 LBD transiently transfected in HEK293T cells assessed as maximal activation incubated for 16 hrs by Gal4-hybrid reporter gene based Dual-glo luciferase assay relative to control; settings: filed as agonist
Nuclear receptor subfamily 4 group A member 3, sequence (Q92570 whole entry, the tested form may be a part): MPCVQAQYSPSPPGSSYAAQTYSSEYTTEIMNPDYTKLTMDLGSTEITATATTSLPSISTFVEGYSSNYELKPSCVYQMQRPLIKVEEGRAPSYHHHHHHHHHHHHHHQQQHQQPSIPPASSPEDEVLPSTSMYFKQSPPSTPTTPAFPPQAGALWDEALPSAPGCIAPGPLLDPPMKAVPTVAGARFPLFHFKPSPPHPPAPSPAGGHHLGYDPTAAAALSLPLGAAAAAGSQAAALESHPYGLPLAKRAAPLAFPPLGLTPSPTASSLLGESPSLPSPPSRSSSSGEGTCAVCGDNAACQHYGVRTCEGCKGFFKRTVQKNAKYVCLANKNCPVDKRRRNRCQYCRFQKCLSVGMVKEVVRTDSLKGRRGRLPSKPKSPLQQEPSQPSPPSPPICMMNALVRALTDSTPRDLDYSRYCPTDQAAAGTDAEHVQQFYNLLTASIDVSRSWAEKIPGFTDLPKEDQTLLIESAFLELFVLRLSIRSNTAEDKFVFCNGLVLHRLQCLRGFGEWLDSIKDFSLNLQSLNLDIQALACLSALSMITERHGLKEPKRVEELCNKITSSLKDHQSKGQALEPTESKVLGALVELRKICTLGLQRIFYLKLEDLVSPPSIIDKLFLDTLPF

[2] = target: T1, Thyroid hormone receptor alpha (Homo sapiens) (UniProt P10827); assay: Agonist activity at THRalpha LBD (unknown origin) transiently transfected in HEK293T cells at 1 uM incubated for 16 hrs by Gal4-hybrid reporter gene based Dual-glo luciferase assay
T1 sequence (whole entry): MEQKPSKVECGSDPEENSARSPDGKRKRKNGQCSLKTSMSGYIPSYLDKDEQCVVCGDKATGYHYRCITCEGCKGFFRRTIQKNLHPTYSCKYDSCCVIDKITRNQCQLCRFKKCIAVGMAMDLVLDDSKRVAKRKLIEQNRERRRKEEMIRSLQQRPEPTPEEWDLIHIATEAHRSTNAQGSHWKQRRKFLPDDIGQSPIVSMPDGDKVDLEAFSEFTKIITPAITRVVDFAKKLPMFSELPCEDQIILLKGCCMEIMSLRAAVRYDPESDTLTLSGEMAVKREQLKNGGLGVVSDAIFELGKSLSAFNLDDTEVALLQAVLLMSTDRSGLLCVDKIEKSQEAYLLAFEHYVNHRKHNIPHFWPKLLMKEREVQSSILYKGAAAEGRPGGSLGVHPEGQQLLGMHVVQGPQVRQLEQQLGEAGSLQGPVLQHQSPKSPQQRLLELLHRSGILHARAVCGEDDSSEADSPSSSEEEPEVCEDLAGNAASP

[3] = target: T2, Peroxisome proliferator-activated receptor gamma (Homo sapiens) (UniProt P37231); assay: Agonist activity at PPARgamma LBD (unknown origin) transiently transfected in HEK293T cells at 1 uM incubated for 16 hrs by Gal4-hybrid reporter gene based Dual-glo luciferase assay
T2 sequence (whole entry): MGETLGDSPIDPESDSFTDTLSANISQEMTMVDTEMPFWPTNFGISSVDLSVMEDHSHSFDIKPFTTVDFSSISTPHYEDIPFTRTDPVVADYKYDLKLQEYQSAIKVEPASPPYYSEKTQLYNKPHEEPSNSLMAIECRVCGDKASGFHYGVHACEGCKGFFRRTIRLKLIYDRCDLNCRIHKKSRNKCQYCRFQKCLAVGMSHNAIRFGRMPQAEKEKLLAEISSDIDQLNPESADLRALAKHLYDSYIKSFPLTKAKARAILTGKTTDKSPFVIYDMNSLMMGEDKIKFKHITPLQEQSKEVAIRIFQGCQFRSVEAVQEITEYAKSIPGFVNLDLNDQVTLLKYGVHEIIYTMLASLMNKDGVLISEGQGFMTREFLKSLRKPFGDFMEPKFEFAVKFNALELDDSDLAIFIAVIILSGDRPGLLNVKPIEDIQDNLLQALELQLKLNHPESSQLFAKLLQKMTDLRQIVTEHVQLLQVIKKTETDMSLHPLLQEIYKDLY

[4] = Selectivity ratio for agonist activity at RARalpha LBD (unknown origin) transiently transfected in HEK293T cells to agonist activity at human Nur77 LBD transiently transfected in HEK293T cells
[5] = Selectivity ratio for agonist activity at PPARalpha LBD (unknown origin) transiently transfected in HEK293T cells to agonist activity at human Nur77 LBD transiently transfected in HEK293T cells
[6] = Selectivity ratio for agonist activity at PPARdelta LBD (unknown origin) transiently transfected in HEK293T cells to agonist activity at human Nur77 LBD transiently transfected in HEK293T cells
[7] = Selectivity ratio for agonist activity at VDR LBD (unknown origin) transiently transfected in HEK293T cells to agonist activity at human Nur77 LBD transiently transfected in HEK293T cells
[8] = Selectivity ratio for agonist activity at FXR LBD (unknown origin) transiently transfected in HEK293T cells to agonist activity at human Nur77 LBD transiently transfected in HEK293T cells
[9] = Selectivity ratio for agonist activity at RXRalpha LBD (unknown origin) transiently transfected in HEK293T cells to agonist activity at human Nur77 LBD transiently transfected in HEK293T cells
[10] = Selectivity ratio for agonist activity at VDR LBD (unknown origin) transiently transfected in HEK293T cells to agonist activity at human Nurr1 LBD transiently transfected in HEK293T cells
[11] = Selectivity ratio for agonist activity at FXR LBD (unknown origin) transiently transfected in HEK293T cells to agonist activity at human Nurr1 LBD transiently transfected in HEK293T cells

Emax [1]: 185%
Activity [2]: inactive
Activity [3]: inactive
Compound: CC(C)(C)c1ccc(COc2cccc(C(=O)O)c2)cc1
Selectivity ratio [4]: > 30
Selectivity ratio [5]: > 30
Selectivity ratio [6]: > 30
Selectivity ratio [7]: > 30
Selectivity ratio [8]: > 30
Selectivity ratio [9]: > 30
Selectivity ratio [10]: > 30
Selectivity ratio [11]: > 30
